Experimental data as given in US8076449B2, “Therapeutic agents of colivelin for neurodegenerative diseases” (Tomohiro Chiba, priority 2004, dated 2011).
Entries after “also recorded” stand apart in the source; their conditions may differ. Ends that are not written are not given here.

What was measured:
[1] = system: F11 cells transformed with G93R-SOD1; assay: Neuronal cell death induced by G93R-SOD1 gene, Trypan blue exclusion assay; assay type: cell-based, rat/mouse hybrid
Procedure: (§1) F11 cell, the hybrid cell of rat embryonic day 13 (E13) primary cultured neuronal cell with mouse neuroblastoma NTG18 cell, was cultured in Ham's F-12 medium (Life Technologies, Gaithersburg, Md.) containing 18% FBS (Hyclone, Logan, Utah) and antibiotics as previously reported (Platika D, et al., 1985, Proc Natl Acad Sci USA 82: 3499-3503; Yamatsuji T, et al., 1996, Science 272: 1349-1352; Huang P, et al., 2000, Mol Hum Reprod 6: 1069-1078; and Niikura T, et al., 2001, J Neuroscience, 21: 1902-1910).
(§2) (i) Test of Neuronal Cell Death Induced by M146L-PS1 or G93R-SOD1 Gene
The F11 cells (7×10^4 cells/well, 6-well plate, 12- to 16-hour culture in Ham's F-12 (18% FBS) medium) were transformed with M146L-PS1 or G93R-SOD1 gene by lipofection (0.5 μg of cDNA; 1 μl of LipofectAMINE; 2 μl of PLUS Reagent) under serum-free conditions for 3 hours and cultured for 2 hours in Ham's F-12 (18% FBS) medium. […] After 72 hours of the transformation, cell mortality was measured by Trypan blue exclusion assay as previously reported (Hashimoto Y, et al., 2001, J Neurosci 21: 9235-9245; and Hashimoto Y, et al, 2001, Proc Natl Acad Sci USA 98: 6336-6341).
ADNF has already been reported to protect neurons from toxicity caused by SOD1 mutations. […] After 72 hours of the transformation, cell mortality was measured by Trypan blue exclusion assay (FIG. 3).

[2] = system: F11 cells transformed with M146L-PS1; assay: Neuronal cell death induced by M146L-PS1 gene, Trypan blue exclusion assay; assay type: cell-based, rat/mouse hybrid; settings: M146L-PS1, 72 hours after transformation
Procedure: as §1, §2
The F11 cells (7×10^4 cells/well, 6-well plate, 12- to 16-hour culture in Ham's F-12 (18% FBS) medium) were transformed with M146L-PS1 or G93R-SOD1 gene by lipofection (0.5 μg of cDNA; 1 μl of LipofectAMINE; 2 μl of PLUS Reagent) under serum-free conditions for 3 hours and cultured for 2 hours in Ham's F-12 (18% FBS) medium. The medium was replaced by Ham's F-12 (10% FBS) in the presence or absence of varying concentrations (100 aM, 1 fM, 10 fM, 100 fM, 1 pM, 10 pM, 100 pM, 1 nM, 10 nM, or 100 nM) of colivelin or AGA-CBR-HNG17 peptides. After 72 hours of the transformation, cell mortality was measured by Trypan blue exclusion assay as previously reported (Hashimoto Y, et al., 2001, J Neurosci 21: 9235-9245; and Hashimoto Y, et al, 2001, Proc Natl Acad Sci USA 98: 6336-6341). […]

G93A-SOD1 Tg mice = assay: Motor performance (rotarod), onset and survival test with ALS model animal, icv administration (Example 3); assay type: in vivo, mouse
Source text: Transgenic (Tg) mice (hereinafter, referred to as “G93A-SOD1 Tg mice”) expressing human FALS-associated SOD1 mutant gene with a mutation (G93A) from Gly to Ala at 93 position are the best-established mouse model of ALS (Gurney M E, et al., 1994, Science 264: 1772-1775; and Gurney M E, et al., 1997, J Neurol Sci 152 Suppl 1: S67-73). The G93A-SOD1 Tg mice manifest symptoms quite similar to human ALS after normal birth and rapidly result in death in all cases. The G93A-SOD1 Tg mice, which have the onset of the regression of motor neurons similar clinically and pathologically to that in human ALS, have been known so far to be the most excellent model of ALS throughout the world and employed for identifying effective candidate drugs for ALS patients.
The model mice were used to confirm the in vivo effect of colivelin against neurotoxicity caused by G93A-SOD1.
The G93A-SOD1 Tg mice were purchased from Jackson Laboratories (Bar Harbor, Me.). The G93A-SOD1 Tg mice were kept as hemizygote mice by the mating thereof with C57BL/6J mice (CLEA Japan, Inc). The mice were raised in an SPF room (specific pathogen-free animal facility; 23±1° C., 55±5% humidity) in the 12-hour light/12-hour dark cycle (7:00 AM-7:00 PM). The mice were freely fed with gamma ray-irradiated Picolab Rodent Diet 20 (PMI Feeds Inc. St. Louis, Mo.) and sodium hyposulfite (5 ppm)-containing aseptic deionized distilled water.
The G93A-SOD1 Tg mice at 10 weeks of age were put under anesthesia by the intraperitoneal injection of 10% Nembutal (sodium pentobarbital; 60 mg/kg). A hole was made on the cranial bone with a drill on a sterotaxic surgery apparatus to aseptically transplant the C315GS-4 cannula system for mouse (Plastics One Inc., Roanoke, Va.) to the mouse left lateral ventricle. The cannula was fixed with a surgical adhesive and dental cement.
The mice at 80 days of age were divided at random to a saline (control)-administered group (n=7), 100 fmol colivelin-administered group (n=6), 10 pmol colivelin-administered group (n=7), 1 nmol colivelin-administered group (n=7), and 30 nmol ADNF-administered group (n=5). Until the end of the experiment, the control group received the intracerebroventricular (icv) injection of 3 μl of saline each day, while the colivelin-administered groups and the ADNF-administered group received the icy injection of 3 μl of colivelin (100 f mol, 10 pmol, or 1 nmol) and 3 μI of 30 nmol ADNF, respectively. In this context, colivelin and ADNF were separately dissolved in a saline for the injection. The injection was performed with the cannula in C315IS-4 connected to Hamilton syringe through a cannula tube (C232, PESO/Thin wall, Plastic One).
The motor function (motor performance) was evaluated weekly with a rotarod (CLEA Japan Inc). After the cannulation, the mice were acclimated to the rotarod for 2 days. The mice were placed onto a rotating rod at a speed of 5 rpm, and the time for which each mouse could remain on the rod was automatically detected. The test was conducted according to the protocol wherein the test was completed as a score of 7 minutes if the mouse remained on the rod for 7 minutes (Li M, et al., 2000, Science 288: 335-339; and Kaspar B K, et al., 2003, Science 301: 839-842). Disease onset was defined as the first day when the mouse could not remain on the rotarod for 7 minutes.
Death was defined when the mouse was unable to right itself within 30 seconds after being placed on its back (Li M, et al., op. cit).

[3] = system: F11 cells transformed with M146L-PS1; settings: as already reported; cited from earlier work
[4] = 100 fmol colivelin icv each day

## PAGASRLLLLTGEIDLP [AGA-C8R-HNG17, Pro-Ala-Gly-Ala-Ser-Arg-Leu-Leu-Leu-Leu-Thr-Gly-Glu-Ile-Asp-Leu-Pro, reference compound]
[1]; varying concentrations 100 aM to 100 nM
  neuroprotective effect on cell death induced by SOD1 mutant: could not protect; also recorded: not observed
[2]
  concentration of complete protection against cell death induced by mutant PS1: 10 pM

## SALLRSIPA [ADNF, reference compound]
G93A-SOD1 Tg mice; 30 nmol ADNF icv each day
  mean survival days: 145.0 days
  time up to which motor function was maintained (rotarod): approximately 130 days
[3]
  suppression of cell death caused by M146L-PS1: does not suppress

## SALLRSIPAPAGASRLLLLTGEIDLP [colivelin]
[1]; 72 hours after transformation
  concentration completely suppressing cell death induced by G93R-SOD1: 1 pM
[2]
  concentration completely suppressing cell death induced by mutant PS1: 100 fM
G93A-SOD1 Tg mice; 10 pmol colivelin icv each day
  mean survival days: 159.4 days
G93A-SOD1 Tg mice; 10 pmol colivelin icv each day, versus control
  prolongation of life span: 11.7%
G93A-SOD1 Tg mice; 1 nmol colivelin icv each day
  delay of the disease onset: approximately 17 day
  mean survival days: 156.7 days
  protective action on motor function (rotarod): most potent protective action
G93A-SOD1 Tg mice; [4]
  mean survival days: 153.3 days
  time of deterioration of motor function (rotarod): approximately 120 days
G93A-SOD1 Tg mice; experiments using ALS model mice (summary statement)
  recovery of motor function: approximately 70%
